Laboratory results: patent publication US10870625B2, “Zwitterionic propargyl-linked antifolates useful for treating bacterial infections” (THE UNIVERSITY OF CONNECTICUT, priority 2016, dated 2020)
In brackets after ≈: the same amount, converted by molar mass. Read-outs that look alike come from different tables or passages of the source. Marks after values point to notes of the source that are not given here.

Key:
Mtb 276 = assay type: cell-based, Mycobacterium tuberculosis; settings: MDR strain
Mtb = experiment: M. tuberculosis MIC, microtiter broth dilution (Table 6); assay type: cell-based, Mycobacterium tuberculosis
Method: (§1) (provided by Leonid Heifets).
(§2) Each isolate was tested in duplicate.

Mtb 352 = assay type: cell-based, Mycobacterium tuberculosis; settings: MDR strain
Mtb 365 = assay type: cell-based, Mycobacterium tuberculosis; settings: MDR strain
Mtb Erdman = Mtb Erdman MIC, microtiter broth dilution; assay type: cell-based, Mycobacterium tuberculosis
Method: as §1, §2

MtbDHFR = MtbDHFR (Mycobacterium tuberculosis (strain ATCC 25618 / H37Rv), UniProt P9WNX1); experiment: M. tuberculosis DHFR enzyme inhibition; assay type: biochemical
Mtb 56 = assay type: cell-based, Mycobacterium tuberculosis; settings: MDR strain
Mtb C-31 = assay type: cell-based, Mycobacterium tuberculosis; settings: MDR strain
Mtb 5 = assay type: cell-based, Mycobacterium tuberculosis; settings: XDR strain
[1] = system: S. aureus ATCC strain 43300; experiment: microbe, parasite or virus in culture; assay type: cell-based, Staphylococcus aureus; settings: for MIC Sa43300: Table 12, wild-type strain
E. coli (Ec) DHFR = E. coli (Ec) DHFR (Escherichia coli (strain K12), UniProt P0ABQ4); experiment: E. coli DHFR enzyme inhibition (NADPH oxidation, 340 nm); assay type: biochemical
E. coli (ATCC 25922) = experiment: E. coli MIC, microdilution broth assay; assay type: cell-based, Escherichia coli
Method: Minimum inhibitory concentrations were determined using E. coli (ATCC 25922) and the microdilution broth assay with an inoculum of […] CFU/mL in Isosensitest Broth (Oxoid).

E. coli NR698 = assay type: cell-based, Escherichia coli
S. aureus (Sa) DHFR = S. aureus (Sa) DHFR (Staphylococcus aureus, UniProt P0A017); assay type: biochemical; settings: Table 2

CCc1nc(N)nc(N)c1C#CCc1cc(-c2cncn2C)ccc1OC [Compound 56]
MIC Mtb 276 (Mtb 276): 4 mg/L (≈ 11 µM)
MIC Mtb (Mtb): 2 mg/L (≈ 5.52 µM)
MIC Mtb 352 (Mtb 352): 4 mg/L (≈ 11 µM)
MIC Mtb 365 (Mtb 365): 4 mg/L (≈ 11 µM)
MIC Mtb Erdman (Mtb Erdman): 4 mg/L (≈ 11 µM)
IC50 (MtbDHFR): 0.126 µM
MIC Mtb56 (Mtb 56): 4 mg/L (≈ 11 µM)
MIC Mtb C-31 (Mtb C-31): 8 mg/L (≈ 22.1 µM)
MIC Mtb 5 (Mtb 5): 4 mg/L (≈ 11 µM)

NNC(=O)c1ccncc1 [INH, Isoniazid, reference compound]
MIC (Mtb; Mycobacterium tuberculosis): 0.03 mg/L (≈ 0.219 µM)
MIC (Mtb Erdman; Mycobacterium tuberculosis, ERDMAN): 0.125 mg/L (≈ 0.911 µM)

CCc1nc(N)nc(N)c1C#CC(C)c1cc(OC)cc(-c2ccncc2)c1 (centres unmarked) [Compound D, reference compound]
MIC Sa43300 [1]: 0.0391 mg/L (≈ 0.105 µM)
MIC Sa(H30N) (Sa(H30N) strain): 0.625 mg/L (≈ 1.67 µM)

CCc1nc(N)nc(N)c1C#CCc1cc2c(c(-c3cc(F)c(O)c(F)c3)c1)OCO2 [Compound 39]
IC50 (E. coli (Ec) DHFR; Table 3): 0.625 µM
MIC E. coli 25922 (E. coli (ATCC 25922); Table 3): 0.625 µg/mL (≈ 1.47 µM)
MIC E. coli NR698 (E. coli NR698; Table 3): 0.001 mg/L (≈ 0.00236 µM)

CCc1nc(N)nc(N)c1C#CCc1cc2c(c(-c3ccc(O)c(F)c3)c1)OCO2 [Compound 38]
IC50 (E. coli (Ec) DHFR; Table 3): 1.25 µM
MIC E. coli 25922 (E. coli (ATCC 25922); Table 3): 0.625 µg/mL (≈ 1.54 µM)
MIC E. coli NR698 (E. coli NR698; Table 3): 0.001 mg/L (≈ 0.00246 µM)

CCc1nc(N)nc(N)c1C#CCc1cc2c(c(-c3ccc(O)cc3)c1)OCO2 [Compound 37]
IC50 (E. coli (Ec) DHFR; Table 3): 2.5 µM
MIC E. coli 25922 (E. coli (ATCC 25922); Table 3): 0.625 µg/mL (≈ 1.61 µM)
MIC E. coli NR698 (E. coli NR698; Table 3): 0.002 mg/L (≈ 0.00515 µM)

CCc1nc(N)nc(N)c1C#CC(C)c1cc2c(c(-c3ccncc3)c1)OCO2 (centres unmarked) [F, reference compound]
MIC Sa43300 [1]: 0.0195 mg/L (≈ 0.0503 µM)
MIC Sa(H30N) (Sa(H30N) strain): 2.5 mg/L (≈ 6.45 µM)

CCc1nc(N)nc(N)c1C#CCc1cc2c(c(-c3cc(F)c(OC)c(F)c3)c1)OCO2 [Compound 40]
IC50 (E. coli (Ec) DHFR; Table 3): > 20 µM
MIC E. coli 25922 (E. coli (ATCC 25922); Table 3): 5 µg/mL (≈ 11.4 µM)
MIC E. coli NR698 (E. coli NR698; Table 3): 0.78 mg/L (≈ 1.78 µM)

CCc1nc(N)nc(N)c1C#C[C@@H](C)c1cc(-c2ccc(C(=O)OC)cc2)ccc1OC [Compound 34]
IC50 (E. coli (Ec) DHFR; Table 2): 0.172 µM
MIC E. coli 25922 (E. coli (ATCC 25922); Table 2, wild-type E. coli): >20* μg/mL
IC50 (S. aureus (Sa) DHFR): 0.205 µM
MIC E. coli NR698 (E. coli NR698; Table 2): 1.875 mg/L (≈ 4.36 µM)
MIC S. aureus 43300 ([1]; Table 2): 10 mg/L (≈ 23.2 µM)

CCc1nc(N)nc(N)c1C#CCc1cc(-c2ccccc2C(=O)O)ccc1OC [Compound 14]
IC50 (E. coli (Ec) DHFR; Table 2): 0.526 µM
MIC E. coli 25922 (E. coli (ATCC 25922); Table 2, wild-type E. coli): >20 µg/mL
IC50 (S. aureus (Sa) DHFR): 0.157 µM
MIC Mtb (Mtb): 1 mg/L (≈ 2.48 µM)
MIC E. coli NR698 (E. coli NR698; Table 2): 0.0391 mg/L (≈ 0.0972 µM)
IC50 (MtbDHFR): 0.311 µM
MIC S. aureus 43300 [1]: 0.625 mg/L (≈ 1.55 µM)

CCc1nc(N)nc(N)c1C#C[C@@H](C)c1cc(-c2ccncc2)ccc1OC [E, reference compound]
MIC Sa43300 [1]: 0.0195 mg/L (≈ 0.0522 µM)
MIC Sa(H30N) (Sa(H30N) strain): 0.625 mg/L (≈ 1.67 µM)

CCc1nc(N)nc(N)c1C#CC(C)c1cc2c(c(-c3cncn3C)c1)OCO2 (centres unmarked) [Compound 54]
MIC Mtb 276 (Mtb 276): 4 mg/L (≈ 10.2 µM)
MIC Mtb (Mtb): 2 mg/L (≈ 5.12 µM)
MIC Mtb 352 (Mtb 352): 4 mg/L (≈ 10.2 µM)
MIC Mtb 365 (Mtb 365): 8 mg/L (≈ 20.5 µM)
MIC Mtb Erdman (Mtb Erdman): 4 mg/L (≈ 10.2 µM)
MIC Mtb56 (Mtb 56): 8 mg/L (≈ 20.5 µM)
MIC Mtb C-31 (Mtb C-31): 8 mg/L (≈ 20.5 µM)
MIC Mtb 5 (Mtb 5): 8 mg/L (≈ 20.5 µM)

CCc1nc(N)nc(N)c1C#CCc1ccc(OC)c(-c2ccc(C(=O)O)cc2)c1 [Compound 59]
MIC Mtb (Mtb): 0.5 mg/L (≈ 1.24 µM)
MIC Mtb 352 (Mtb 352): 0.5 mg/L (≈ 1.24 µM)
MIC Mtb 365 (Mtb 365): 0.125 mg/L (≈ 0.311 µM)
MIC Mtb Erdman (Mtb Erdman): 0.5 mg/L (≈ 1.24 µM)
IC50 (MtbDHFR): 0.46 µM
MIC Mtb56 (Mtb 56): 0.5 mg/L (≈ 1.24 µM)
MIC Mtb C-31 (Mtb C-31): 8 mg/L (≈ 19.9 µM)
MIC Mtb 5 (Mtb 5): 2 mg/L (≈ 4.97 µM)

CCc1nc(N)nc(N)c1C#CCc1cc(OC)c(OC)c(-c2ccncc2)c1 [Compound 60]
MIC Sa43300 [1]: 0.0195 mg/L (≈ 0.0501 µM)
MIC Sa(H30N) (Sa(H30N) strain): 0.625 mg/L (≈ 1.6 µM)

CCc1nc(N)nc(N)c1C#C[C@@H](C)c1cc(OC)cc(-c2ccc(C(=O)O)cc2)c1 [Compound 32]
MIC E. coli 25922 (E. coli (ATCC 25922); Table 2, wild-type E. coli): 10 µg/mL (≈ 24 µM)
MIC E. coli NR698 (E. coli NR698; Table 2): 0.0024 mg/L (≈ 0.00576 µM)
MIC S. aureus 43300 [1]: 0.0098 mg/L (≈ 0.0235 µM)
MIC Sa43300 [1]: 0.0098 mg/L (≈ 0.0235 µM)
MIC Sa(H30N) (Sa(H30N) strain): 0.0781 mg/L (≈ 0.188 µM)

CCc1nc(N)nc(N)c1C#C[C@@H](C)c1cc(-c2ccncc2)ccc1OC [Compound 57]
MIC Mtb (Mtb): 2 mg/L (≈ 5.36 µM)
IC50 (MtbDHFR): 0.073 µM

CCc1nc(N)nc(N)c1C#C[C@@H](C)c1cc(-c2ccc(C(=O)O)cc2)ccc1OC [Compound 30]
MIC E. coli 25922 (E. coli (ATCC 25922); Table 2, wild-type E. coli): 20 µg/mL (≈ 48 µM)
MIC E. coli NR698 (E. coli NR698; Table 2): 0.0012 mg/L (≈ 0.00288 µM)
MIC S. aureus 43300 [1]: 0.0195 mg/L (≈ 0.0468 µM)

CCc1nc(N)nc(N)c1C#CC(C)c1cc2c(c(-c3ccncc3)c1)OCO2 (centres unmarked) [Compound B, reference compound]
MIC Sa43300 [1]: 0.0781 mg/L (≈ 0.202 µM)
MIC Sa(H30N) (Sa(H30N) strain): 5 mg/L (≈ 12.9 µM)

CCc1nc(N)nc(N)c1C#CCc1cc(-c2ccccc2C(=O)O)ccc1OC [Compound 13]
IC50 (E. coli (Ec) DHFR; Table 2): 0.195 µM
MIC E. coli 25922 (E. coli (ATCC 25922); Table 2, wild-type E. coli): >32 µg/mL
IC50 (S. aureus (Sa) DHFR): 0.359 µM
MIC E. coli NR698 (E. coli NR698; Table 2): 20 mg/L (≈ 49.7 µM)
MIC S. aureus 43300 [1]: >20 mg/L

CCc1nc(N)nc(N)c1C#C[C@H](C)c1cc(OC)cc(-c2ccc(C(=O)O)cc2)c1 [Compound 31]
MIC E. coli 25922 (E. coli (ATCC 25922); Table 2, wild-type E. coli): 10 µg/mL (≈ 24 µM)
MIC E. coli NR698 (E. coli NR698; Table 2): 0.0024 mg/L (≈ 0.00576 µM)
MIC S. aureus 43300 [1]: 0.0098 mg/L (≈ 0.0235 µM)
MIC Sa43300 [1]: 0.0098 mg/L (≈ 0.0235 µM)
MIC Sa(H30N) (Sa(H30N) strain): 0.0781 mg/L (≈ 0.188 µM)

CCc1nc(N)nc(N)c1C#C[C@H](C)c1cc(-c2ccc(C(=O)OC)cc2)ccc1OC [Compound 33]
IC50 (E. coli (Ec) DHFR; Table 2): 0.034 µM
MIC E. coli 25922 (E. coli (ATCC 25922); Table 2, wild-type E. coli): >20* μg/mL
IC50 (S. aureus (Sa) DHFR): 0.022 µM
MIC E. coli NR698 (E. coli NR698; Table 2): 0.156 mg/L (≈ 0.362 µM)
MIC S. aureus 43300 ([1]; Table 2): 0.625 mg/L (≈ 1.45 µM)

CCc1nc(N)nc(N)c1C#CCc1cc(OC)cc(-c2ccc(C(=O)O)cc2)c1 [Compound 16]
IC50 (E. coli (Ec) DHFR; Table 2): 0.507 µM
MIC E. coli 25922 (E. coli (ATCC 25922); Table 2, wild-type E. coli): >20 µg/mL
MIC E. coli NR698 (E. coli NR698; Table 2): 0.0049 mg/L (≈ 0.0122 µM)
MIC S. aureus 43300 [1]: 0.0195 mg/L (≈ 0.0485 µM)
MIC Sa43300 [1]: 0.0195 mg/L (≈ 0.0485 µM)
MIC Sa(H30N) (Sa(H30N) strain): 0.1563 mg/L (≈ 0.388 µM)

CCc1nc(N)nc(N)c1C#CC(C)c1cc(-c2ccncc2)ccc1OC (racemic) [C, reference compound]
MIC Sa43300 [1]: 0.625 mg/L (≈ 1.67 µM)
MIC Sa(H30N) (Sa(H30N) strain): 2.5 mg/L (≈ 6.69 µM)

CCc1nc(N)nc(N)c1C#CC(C)c1cc(OC)cc(-c2ccc(C(=O)O)cc2)c1 (centres unmarked) [Compound 58]
MIC Mtb (Mtb): <0.03 mg/L
MIC Mtb 352 (Mtb 352): 0.06 mg/L (≈ 0.144 µM)
MIC Mtb 365 (Mtb 365): <0.03 mg/L
MIC Mtb Erdman (Mtb Erdman): <0.03 mg/L
MIC Mtb56 (Mtb 56): 0.06 mg/L (≈ 0.144 µM)
MIC Mtb C-31 (Mtb C-31): 8 mg/L (≈ 19.2 µM)
MIC Mtb 5 (Mtb 5): 0.25 mg/L (≈ 0.6 µM)
